Reference: patent publication US20210260015A1, “COMPOSITION FOR INHIBITING FAT ACCUMULATION” (National University Corporation Tokyo University of …, priority 2018, published 2021)

Experiments:
Format in all cases: in vivo, C57BL/6J male mice
[1] = Plasma levels of ketone bodies 5 weeks after the beginning of ingestion (enzymatic method); details: conclusion from diet groups
Experimental: (§1) Seven (7)-week-old C57BL/6J male mice (Japan SLC, Inc.) were acclimated with CLEA Rodent Diet CE-2 (manufactured by CLEA Japan, Inc.) for 1 week, and divided into 5 groups (n=9 or 10). Any of feeds having the compositions indicated in Tables 1 and 2, i.e., four types of test diets and a normal diet, was given to the respective groups for 5 weeks. Specifically, as the test diets, MCT diets were prepared by blending MCTs and LCT in a low-carbohydrate high-fat diet feed made based on an AIN-93G standard composition feed, and an LCT diet was prepared by blending LCT (manufactured by Wako Pure Chemical Industries) alone, without MCT, in a low-carbohydrate high-fat diet feed made based on an AIN-93G standard composition feed. […]
(§2) The ingestion amounts of the test diets and the body weight changes during the test period (5 weeks) were measured, and the weights of the various organs including adipose tissues and the plasma levels of ketone bodies were measured at the end of the test period. […] In addition, plasma was collected from the collected blood, and ketone bodies were quantified according to an enzymatic method.

[2] = Weights of adipose tissues 5 weeks after the beginning of ingestion; details: conclusion from diet groups, C8 vs C10 or C12
Experimental: as §1, §2

[3] = Body weight changes of mice fed test diets for 5 weeks; details: conclusion from diet groups, C8 vs C10 and C12
Experimental: as §1, §2

**Q.** For `CCCCCCCC(=O)OCC(COC(=O)CCCCCCC)OC(=O)CCCCCCC` [caprylic acid triglyceride (C8), caprylic acid triglyceride], which “ketone body production, C8 vs C10 or C12 triglyceride” value [1] is on record?
**A.** produces ketone bodies more than those produced by capric acid triglyceride (C10) or lauric acid triglyceride (C12)

**Q.** And the “effect for suppressing neutral fat accumulation depending on the number of carbon atoms of the constituent fatty acid of MCT” value [2]?
**A.** has a higher effect for suppressing neutral fat accumulation than that of capric acid triglyceride (C10) or lauric acid triglyceride (C12)

**Q.** What about the “effect for suppressing body weight gain depending on the number of carbon atoms of the constituent fatty acid of MCT” value [3] of the same compound?
**A.** has a higher effect for suppressing body weight gain than those of capric acid triglyceride (C10) and lauric acid triglyceride (C12)
